Test system: 328373-195-R-J1-PDC complex spheroids, viability % test/control
Test: Anticancer human tumor 328373-195-R-J1-PDC patient-derived head and neck squamous carcinoma cell line growth inhibition [CLK]
Details: for IC50: curve of first compound; for viability, T/C: stronger effect = lower value
Procedure, shortened: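 Multi-cell-type spheroids combined patient-derived tumor cells with HUVEC endothelial cells and human mesenchymal stem cells. Paired agents were dosed in half-log steps down from about clinical Cmax, or from 10 microM where Cmax was unknown.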

[1] = second compound 0.0316 µM, first compound 0.0316 µM
[2] = second compound 0.0316 µM, first compound 0.1 µM
[3] = second compound 0.1 µM, first compound 0.0316 µM
[4] = second compound 0.1 µM, first compound 0.1 µM
[5] = second compound 0.316 µM, first compound 0.0316 µM
[6] = second compound 0.316 µM, first compound 0.1 µM
[7] = second compound 1 µM, first compound 0.0316 µM
[8] = second compound 1 µM, first compound 0.1 µM
[9] = second compound 3.16 µM, first compound 0.0316 µM
[10] = second compound 3.16 µM, first compound 0.1 µM
[11] = second compound 10 µM, first compound 0.0316 µM
[12] = second compound 10 µM, first compound 0.1 µM
[13] = second compound 0.0316 µM, first compound 0.316 µM
[14] = second compound 0.0316 µM, first compound 1 µM
[15] = second compound 0.0316 µM, first compound 3.16 µM
[16] = second compound 0.0316 µM, first compound 10 µM
[17] = second compound 0.1 µM, first compound 0.316 µM
[18] = second compound 0.1 µM, first compound 1 µM
[19] = second compound 0.1 µM, first compound 3.16 µM
[20] = second compound 0.1 µM, first compound 10 µM
[21] = second compound 0.316 µM, first compound 0.316 µM
[22] = second compound 0.316 µM, first compound 1 µM
[23] = second compound 0.316 µM, first compound 3.16 µM
[24] = second compound 0.316 µM, first compound 10 µM
[25] = second compound 1 µM, first compound 0.316 µM
[26] = second compound 1 µM, first compound 1 µM
[27] = second compound 1 µM, first compound 3.16 µM
[28] = second compound 1 µM, first compound 10 µM
[29] = second compound 3.16 µM, first compound 0.316 µM
[30] = second compound 3.16 µM, first compound 1 µM
[31] = second compound 3.16 µM, first compound 3.16 µM
[32] = second compound 3.16 µM, first compound 10 µM
[33] = second compound 10 µM, first compound 0.316 µM
[34] = second compound 10 µM, first compound 1 µM
[35] = second compound 10 µM, first compound 3.16 µM
[36] = second compound 10 µM, first compound 10 µM
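Note: spheroids exposed to the agents for 7 days.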

`Cn1ncnc1[C@H]1c2n[nH]c(=O)c3cc(F)cc(c23)N[C@@H]1c1ccc(F)cc1` + CNC(=O)c1ccc(Nc2nc(OC3CCCC3)c3c(-c4ccc5nc(C)oc5c4)c[nH]c3n2)c(OC)c1 gave an IC50 (second compound 0.0316 µM) of 40.6 nM, an IC50 (second compound 0.1 µM) of less than 0.316 nM and an IC50 (second compound 0.316 µM) of less than 0.316 nM. For the same compound, the IC50 (second compound 1 µM) was less than 0.316 nM, the IC50 (second compound 3.16 µM) was less than 0.316 nM and the IC50 (second compound 10 µM) was less than 0.316 nM. It also gave a viability, T/C (second compound 0.0316 µM, first compound 0.000316 µM) of 51.9%, a viability, T/C (second compound 0.0316 µM, first compound 0.001 µM) of 51.6% and a viability, T/C (second compound 0.0316 µM, first compound 0.00316 µM) of 47.8%. For the same compound, the viability, T/C (second compound 0.0316 µM, first compound 0.01 µM) was 66.8%, the viability, T/C [1] was 51.7% and the viability, T/C [2] was 40.6%. It also gave a viability, T/C (second compound 0.1 µM, first compound 0.000316 µM) of 9.58%, a viability, T/C (second compound 0.1 µM, first compound 0.001 µM) of 9.68% and a viability, T/C (second compound 0.1 µM, first compound 0.00316 µM) of 9.49%. The viability, T/C (second compound 0.1 µM, first compound 0.01 µM) was 11.1%, the viability, T/C [3] was 9.25% and the viability, T/C [4] was 12.2%. It also gave a viability, T/C (second compound 0.316 µM, first compound 0.000316 µM) of 9.25%, a viability, T/C (second compound 0.316 µM, first compound 0.001 µM) of 10.3% and a viability, T/C (second compound 0.316 µM, first compound 0.00316 µM) of 8.72%. The viability, T/C (second compound 0.316 µM, first compound 0.01 µM) was 10.3%, the viability, T/C [5] was 9.93% and the viability, T/C [6] was 10.4%. The viability, T/C (second compound 1 µM, first compound 0.000316 µM) was 9.2%, the viability, T/C (second compound 1 µM, first compound 0.001 µM) was 9.13% and the viability, T/C (second compound 1 µM, first compound 0.00316 µM) was 9.32%. For the same compound, the viability, T/C (second compound 1 µM, first compound 0.01 µM) was 11.8%, the viability, T/C [7] was 9.07% and the viability, T/C [8] was 8.36%. The viability, T/C (second compound 3.16 µM, first compound 0.000316 µM) was 9.59%, the viability, T/C (second compound 3.16 µM, first compound 0.001 µM) was 9.4% and the viability, T/C (second compound 3.16 µM, first compound 0.00316 µM) was 9.78%. It also gave a viability, T/C (second compound 3.16 µM, first compound 0.01 µM) of 10%, a viability, T/C [9] of 11% and a viability, T/C [10] of 9.49%. The viability, T/C (second compound 10 µM, first compound 0.000316 µM) was 11.2%, the viability, T/C (second compound 10 µM, first compound 0.001 µM) was 11.1% and the viability, T/C (second compound 10 µM, first compound 0.00316 µM) was 8.71%. It also gave a viability, T/C (second compound 10 µM, first compound 0.01 µM) of 11.8%, a viability, T/C [11] of 12.4% and a viability, T/C [12] of 8.72%.
`Nc1ccn(C2OC(CO)C(O)C2(F)F)c(=O)n1` (stereo unspecified) + CNC(=O)c1ccc(Nc2nc(OC3CCCC3)c3c(-c4ccc5nc(C)oc5c4)c[nH]c3n2)c(OC)c1 gave an IC50 (second compound 0.0316 µM) of less than 31.6 nM, an IC50 (second compound 0.1 µM) of less than 31.6 nM and an IC50 (second compound 0.316 µM) of less than 31.6 nM. It also gave an IC50 (second compound 1 µM) of less than 31.6 nM, an IC50 (second compound 3.16 µM) of less than 31.6 nM and an IC50 (second compound 10 µM) of less than 31.6 nM. It also gave a viability, T/C [1] of 2.44%, a viability, T/C [2] of 1.85% and a viability, T/C [13] of 3.64%. The viability, T/C [14] was 2.74%, the viability, T/C [15] was 2.63% and the viability, T/C [16] was 1.95%. For the same compound, the viability, T/C [3] was 3.4%, the viability, T/C [4] was 1.85% and the viability, T/C [17] was 2.02%. The viability, T/C [18] was 2.08%, the viability, T/C [19] was 2.83% and the viability, T/C [20] was 4.18%. The viability, T/C [5] was 3.23%, the viability, T/C [6] was 2.68% and the viability, T/C [21] was 4.06%. The viability, T/C [22] was 2.46%, the viability, T/C [23] was 2.95% and the viability, T/C [24] was 1.84%. For the same compound, the viability, T/C [7] was 4.36%, the viability, T/C [8] was 1.86% and the viability, T/C [25] was 1.79%. For the same compound, the viability, T/C [26] was 2.35%, the viability, T/C [27] was 3.18% and the viability, T/C [28] was 3.19%. It also gave a viability, T/C [9] of 5.21%, a viability, T/C [10] of 3.42% and a viability, T/C [29] of 4.01%. It also gave a viability, T/C [30] of 2.03%, a viability, T/C [31] of 2.01% and a viability, T/C [32] of 1.88%. For the same compound, the viability, T/C [11] was 6.95%, the viability, T/C [12] was 3.09% and the viability, T/C [33] was 3.18%. For the same compound, the viability, T/C [34] was 2.49%, the viability, T/C [35] was 2.14% and the viability, T/C [36] was 1.82%.
With `O=C(c1cc(Cc2n[nH]c(=O)c3ccccc23)ccc1F)N1CCN(C(=O)C2CC2)CC1` + CNC(=O)c1ccc(Nc2nc(OC3CCCC3)c3c(-c4ccc5nc(C)oc5c4)c[nH]c3n2)c(OC)c1 the IC50 (second compound 0.0316 µM) was greater than 10000 nM, the IC50 (second compound 0.1 µM) was less than 31.6 nM and the IC50 (second compound 0.316 µM) was less than 31.6 nM. The IC50 (second compound 1 µM) was less than 31.6 nM, the IC50 (second compound 3.16 µM) was less than 31.6 nM and the IC50 (second compound 10 µM) was less than 31.6 nM. It also gave a viability, T/C [1] of 69.1%, a viability, T/C [2] of 62.5% and a viability, T/C [13] of 62.2%. It also gave a viability, T/C [14] of 59.1%, a viability, T/C [15] of 70.7% and a viability, T/C [16] of 52.3%. It also gave a viability, T/C [3] of 13.8%, a viability, T/C [4] of 13.1% and a viability, T/C [17] of 9.71%. For the same compound, the viability, T/C [18] was 12.3%, the viability, T/C [19] was 13.5% and the viability, T/C [20] was 11.3%. For the same compound, the viability, T/C [5] was 10.8%, the viability, T/C [6] was 11.1% and the viability, T/C [21] was 11.7%. The viability, T/C [22] was 9.06%, the viability, T/C [23] was 11.2% and the viability, T/C [24] was 10.3%. It also gave a viability, T/C [7] of 10.3%, a viability, T/C [8] of 10% and a viability, T/C [25] of 9.23%. It also gave a viability, T/C [26] of 12%, a viability, T/C [27] of 12.6% and a viability, T/C [28] of 9.55%. The viability, T/C [9] was 11.4%, the viability, T/C [10] was 11.2% and the viability, T/C [29] was 10%. The viability, T/C [30] was 11.5%, the viability, T/C [31] was 14.2% and the viability, T/C [32] was 9.92%. It also gave a viability, T/C [11] of 11.5%, a viability, T/C [12] of 13.2% and a viability, T/C [33] of 13.2%. For the same compound, the viability, T/C [34] was 9.97%, the viability, T/C [35] was 15.8% and the viability, T/C [36] was 12.4%.

— PubChem BioAssay AID2060620 (Molecular Pharmacology Branch, DTP, NCI, 2025)
